Test results reported in ChEMBL document CHEMBL1153657, “2-[4-(o-methoxyphenyl)piperazin-1-ylmethyl]-1,3-dioxoperhydroimidazo[1,5-a]pyridine as a new selective 5-HT1A receptor ligand” (Bioorg Med Chem Lett, 1996).

What was measured:
[1] = molecular target: T1, 5-hydroxytryptamine receptor 1A (Rattus norvegicus, UniProt P19327); experiment: Compound was evaluated for its ability to displace [3H]8-OH-DPAT from serotonin 5-hydroxytryptamine 1A receptor in rat cerebral cortex membranes; type: cell membranes, Membrane
T1 sequence (P19327 whole entry): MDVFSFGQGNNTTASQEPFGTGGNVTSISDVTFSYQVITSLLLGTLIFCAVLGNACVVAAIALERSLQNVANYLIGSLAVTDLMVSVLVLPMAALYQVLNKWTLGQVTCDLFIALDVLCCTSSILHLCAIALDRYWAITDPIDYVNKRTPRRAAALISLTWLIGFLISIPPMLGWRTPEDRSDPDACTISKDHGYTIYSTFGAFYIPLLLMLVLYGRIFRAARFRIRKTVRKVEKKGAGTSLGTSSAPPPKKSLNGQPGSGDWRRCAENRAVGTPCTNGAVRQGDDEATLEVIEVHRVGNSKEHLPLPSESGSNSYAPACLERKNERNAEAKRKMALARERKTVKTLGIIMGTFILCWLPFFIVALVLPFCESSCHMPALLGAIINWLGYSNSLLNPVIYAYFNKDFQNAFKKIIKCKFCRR

[2] = molecular target: T2, Adrenergic receptor alpha-1 (Rattus norvegicus, UniProt P15823+P23944+P43140); experiment: Binding affinity at Alpha-1 adrenergic receptor in rat cerebral cortex membranes by [3H]prazosin displacement.; type: cell membranes, Membrane
T2 sequence (P15823 whole entry): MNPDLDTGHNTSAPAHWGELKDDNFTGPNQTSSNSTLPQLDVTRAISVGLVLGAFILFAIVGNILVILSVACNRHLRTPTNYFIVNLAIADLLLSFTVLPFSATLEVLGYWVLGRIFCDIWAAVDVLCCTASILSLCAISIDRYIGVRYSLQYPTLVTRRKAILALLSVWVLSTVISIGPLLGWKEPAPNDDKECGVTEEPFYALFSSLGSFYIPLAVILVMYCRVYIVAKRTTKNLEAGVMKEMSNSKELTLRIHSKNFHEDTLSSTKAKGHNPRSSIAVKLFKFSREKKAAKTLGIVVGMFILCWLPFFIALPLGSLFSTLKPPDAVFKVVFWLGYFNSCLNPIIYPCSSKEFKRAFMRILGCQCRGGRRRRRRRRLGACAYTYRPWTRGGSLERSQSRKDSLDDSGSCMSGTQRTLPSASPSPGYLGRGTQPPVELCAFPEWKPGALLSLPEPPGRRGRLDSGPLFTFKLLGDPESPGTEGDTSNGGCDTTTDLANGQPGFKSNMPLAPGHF
T2 sequence (P23944 whole entry): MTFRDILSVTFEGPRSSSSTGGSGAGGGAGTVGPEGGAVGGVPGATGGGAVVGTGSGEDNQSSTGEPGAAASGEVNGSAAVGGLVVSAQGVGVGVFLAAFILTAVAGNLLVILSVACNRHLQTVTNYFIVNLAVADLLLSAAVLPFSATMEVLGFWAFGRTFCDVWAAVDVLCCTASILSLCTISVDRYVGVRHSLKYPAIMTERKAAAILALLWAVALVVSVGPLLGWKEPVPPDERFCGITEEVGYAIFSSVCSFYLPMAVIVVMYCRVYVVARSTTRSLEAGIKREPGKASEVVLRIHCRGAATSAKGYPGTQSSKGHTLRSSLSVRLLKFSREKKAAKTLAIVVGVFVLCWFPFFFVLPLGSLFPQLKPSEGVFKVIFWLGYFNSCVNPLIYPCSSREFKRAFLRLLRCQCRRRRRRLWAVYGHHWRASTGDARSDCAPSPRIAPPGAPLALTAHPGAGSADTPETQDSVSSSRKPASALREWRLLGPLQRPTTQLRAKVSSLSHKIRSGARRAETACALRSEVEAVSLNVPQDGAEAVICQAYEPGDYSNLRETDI
T2 sequence (P43140 whole entry): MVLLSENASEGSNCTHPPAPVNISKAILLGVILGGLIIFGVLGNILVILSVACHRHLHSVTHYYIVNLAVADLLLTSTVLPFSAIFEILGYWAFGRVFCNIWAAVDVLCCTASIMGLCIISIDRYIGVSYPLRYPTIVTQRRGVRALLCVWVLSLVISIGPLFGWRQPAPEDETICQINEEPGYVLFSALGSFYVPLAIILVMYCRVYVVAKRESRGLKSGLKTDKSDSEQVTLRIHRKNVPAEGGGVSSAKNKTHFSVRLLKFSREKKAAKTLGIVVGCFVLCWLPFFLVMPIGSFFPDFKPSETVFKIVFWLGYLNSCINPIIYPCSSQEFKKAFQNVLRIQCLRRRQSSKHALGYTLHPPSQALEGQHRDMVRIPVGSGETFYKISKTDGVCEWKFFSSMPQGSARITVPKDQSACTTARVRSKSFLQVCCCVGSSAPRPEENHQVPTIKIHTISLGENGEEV

[3] = molecular target: 5-hydroxytryptamine receptor 2A (Rattus norvegicus, UniProt P14842); experiment: Compound was evaluated for binding affinity against 5-hydroxytryptamine 2A receptor using [3H]ketanserin as a radioligand
Chain of 5-hydroxytryptamine receptor 2A (P14842 whole entry): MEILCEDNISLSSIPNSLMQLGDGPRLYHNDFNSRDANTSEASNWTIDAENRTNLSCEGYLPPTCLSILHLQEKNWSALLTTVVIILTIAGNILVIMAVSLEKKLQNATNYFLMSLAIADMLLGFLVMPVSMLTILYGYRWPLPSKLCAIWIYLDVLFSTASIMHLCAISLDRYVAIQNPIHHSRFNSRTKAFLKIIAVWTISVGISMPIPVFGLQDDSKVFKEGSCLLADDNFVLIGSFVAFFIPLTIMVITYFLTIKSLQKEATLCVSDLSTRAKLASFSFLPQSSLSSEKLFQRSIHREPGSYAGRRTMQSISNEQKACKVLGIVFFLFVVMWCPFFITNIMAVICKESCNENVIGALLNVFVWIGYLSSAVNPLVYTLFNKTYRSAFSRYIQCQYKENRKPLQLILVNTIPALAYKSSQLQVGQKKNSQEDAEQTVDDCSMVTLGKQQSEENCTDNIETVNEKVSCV

`COc1ccccc1N1CCN(CCCCN2C(=O)CC3(CCCC3)CC2=O)CC1` gave an IC50 [1] of 0.002 µM.

With `COc1ccccc1N1CCN(CCN2C(=O)c3ccccc3C2=O)CC1` the Ki [2] was 0.13 µM.

With `COc1ccccc1N1CCN(CCCN2C(=O)c3ccccc3C2=O)CC1` the Ki [2] was 0.033 µM.

For `COc1ccccc1N1CCN(CN2C(=O)C3CCCCN3C2=O)CC1` (stereo not given), the Ki [3] was 1 µM.

Work on `COc1ccccc1N1CCN(CCCN2C(=O)CC3(CCCC3)CC2=O)CC1` yielded an IC50 [1] of 0.08 µM.
